Activity calls are given as the source filed them. The calls are words filed in the database; no cut-off is given here.
Tests used:
3T3-L1 = assay: Inhibition of triglyceride accumulation in mouse 3T3L1 cells at 10 uM after 24 hrs; assay type: functional
Mus musculus [1] = assay: Antiobesity activity in diet-induced obese C57Bl/6 mouse assessed as reduction in size of fat cells at 20 mg/kg/day, po for 4 weeks administered with high-fat diet by Oil Red O staining-based histological method; assay type: functional, organism-based
Mus musculus [2] = assay: Decrease in insulin resistance in diet-induced obese C57Bl/6 mouse assessed as induction of insulin secretion at 20 mg/kg/day, po for 4 weeks by insulin tolerance test; assay type: functional, organism-based
Mus musculus [3] = assay: Antiobesity activity in diet-induced obese C57Bl/6 mouse assessed as reduction in fat accumulation in liver at 50 mg/kg/day, po for 4 weeks administered with high-fat diet by Oil Red O staining-based histological method; assay type: functional, organism-based
Mus musculus [4] = assay: Antiobesity activity in diet-induced obese C57Bl/6 mouse assessed as reduction in triglyceride level compound dosed po for 4 weeks with high-fat diet; assay type: functional, organism-based
Mus musculus [5] = assay: Increase in glucose tolerance in diet-induced obese C57Bl/6 mouse at 20 mg/kg/day, po for 4 weeks by oral glucose tolerance test; assay type: functional, organism-based
Mus musculus [6] = assay: Increase in glucose tolerance in diet-induced obese C57Bl/6 mouse at 50 mg/kg/day, po for 4 weeks by oral glucose tolerance test; assay type: functional, organism-based
Mus musculus [7] = assay: Decrease in insulin resistance in diet-induced obese C57Bl/6 mouse assessed as induction of insulin secretion at 20 mg/kg, po as single dose by insulin tolerance test; assay type: functional, organism-based; parameters: dose 20 mg/kg
Mus musculus [8] = assay: Antiobesity activity in diet-induced obese C57Bl/6 mouse assessed as change in insulin level compound dosed po for 4 weeks with high-fat diet; assay type: functional, organism-based
Mus musculus [9] = assay: Antiobesity activity in diet-induced obese C57Bl/6 mouse assessed as reduction in LDL level compound dosed po for 4 weeks with high-fat diet; assay type: functional, organism-based
Mus musculus [10] = assay: Antiobesity activity in diet-induced obese C57Bl/6 mouse assessed as alteration of adipose tissue morphology at 20 to 50 mg/kg/day, po for 4 weeks administered with high-fat diet by Oil Red O staining-based histological method; assay type: functional, organism-based
Mus musculus [11] = assay: Antiobesity activity in diet-induced obese C57Bl/6 mouse assessed as reduction in lipid droplets in liver at 50 mg/kg/day, po for 4 weeks administered with high-fat diet by Oil Red O staining-based histological method; assay type: functional, organism-based
Mus musculus [12] = assay: Antiobesity activity in diet-induced obese C57Bl/6 mouse assessed as reduction in HOMA-IR value compound dosed po for 4 weeks with high-fat diet; assay type: functional, organism-based
Mus musculus [13] = assay: Antiobesity activity in diet-induced obese C57Bl/6 mouse assessed as reduction in fasting blood glucose compound dosed po for 4 weeks with high-fat diet; assay type: functional, organism-based
Mus musculus [14] = assay: Antiobesity activity in diet-induced obese C57Bl/6 mouse assessed as reduction in FFA level compound dosed po for 4 weeks with high-fat diet; assay type: functional, organism-based
Mus musculus [15] = assay: Increase in glucose tolerance in po dosed diet-induced obese C57Bl/6 mouse by oral glucose tolerance test; assay type: functional, organism-based
Mus musculus [16] = assay: Antiobesity activity in diet-induced obese C57Bl/6 mouse assessed as increase in HDL level compound dosed po for 4 weeks with high-fat diet; assay type: functional, organism-based
Mus musculus [17] = assay: Antiobesity activity in diet-induced obese C57Bl/6 mouse assessed as normal liver morphology and histology at 50 mg/kg/day, po for 4 weeks administered with high-fat diet by Oil Red O staining-based histological method; assay type: functional, organism-based
Mus musculus [18] = assay: Increase in glucose tolerance in diet-induced obese C57Bl/6 mouse at 20 mg/kg, po as single dose by oral glucose tolerance test; assay type: functional, organism-based; parameters: dose 20 mg/kg
Mus musculus [19] = assay: Antiobesity activity in diet-induced obese C57Bl/6 mouse assessed as reduction in fat accumulation in liver at 20 to 50 mg/kg/day, po for 4 weeks administered with high-fat diet by Oil Red O staining-based histological method; assay type: functional, organism-based
Mus musculus [20] = assay: Decrease in insulin resistance in po dosed diet-induced obese C57Bl/6 mouse assessed as induction of insulin secretion by insulin tolerance test; assay type: functional, organism-based
Mus musculus [21] = assay: Decrease in insulin resistance in diet-induced obese C57Bl/6 mouse assessed as induction of insulin secretion at 50 mg/kg/day, po for 4 weeks by insulin tolerance test; assay type: functional, organism-based

CCOC(=O)Cn1c(=O)c2c(nc(-c3ccc(OCCN(C)c4ccccn4)cc3)n2COC(=O)C(C)(C)C)n(C)c1=O
inhibition (3T3-L1): inactive

CN(CCOc1ccc(-c2nc3c(c(=O)n(Cc4ccccc4C#N)c(=O)n3C)n2CC(=O)O)cc1)c1ccccn1
inhibition (3T3-L1): inactive

CN(CCOc1ccc(-c2nc3c(c(=O)[nH]c(=O)n3C)n2COC(=O)C(C)(C)C)cc1)c1ccccn1
inhibition (3T3-L1): Active

CN(CCOc1ccc(-c2nc3c(c(=O)n(CC(=O)O)c(=O)n3C)n2CC(=O)O)cc1)c1ccccn1
inhibition (3T3-L1): Active

CCCCCn1c(-c2ccc(OCCN(C)c3ccccn3)cc2)nc2c1c(=O)n(Cc1ccccc1C#N)c(=O)n2C
inhibition (3T3-L1): inactive

CCCCn1c(-c2ccc(OCCN(C)c3ccccn3)cc2)nc2c1c(=O)n(Cc1ccccc1C#N)c(=O)n2C
inhibition (3T3-L1): Active

CCOC(=O)Cn1c(-c2ccc(OCCN(C)c3ccccn3)cc2)nc2c1c(=O)n(Cc1ccccc1C#N)c(=O)n2C
inhibition (3T3-L1): inactive

CCn1c(-c2ccc(OCCN(C)c3ccccn3)cc2)nc2c1c(=O)n(Cc1ccccc1C#N)c(=O)n2C
Activity (Mus musculus [1]): Active
Activity (Mus musculus [2]): Active
Activity (Mus musculus [3]): Active
Activity (Mus musculus [4]): Dose-dependent effect
Activity (Mus musculus [5]): Active
Activity (Mus musculus [6]): Active
Activity (Mus musculus [7]): Active
Activity (Mus musculus [8]): Dose-dependent effect
Activity (Mus musculus [9]): Dose-dependent effect
Activity (Mus musculus [10]): Active
Activity (Mus musculus [11]): Active
Activity (Mus musculus [12]): Dose-dependent effect
Activity (Mus musculus [13]): Dose-dependent effect
Activity (Mus musculus [14]): Dose-dependent effect
Activity (Mus musculus [15]): Dose-dependent effect
Activity (Mus musculus [16]): Dose-dependent effect
Activity (Mus musculus [17]): Active
Activity (Mus musculus [18]): Active
Activity (Mus musculus [19]): Active
Activity (Mus musculus [20]): Dose-dependent effect
Activity (Mus musculus [21]): Active

CC(C)=CCn1c(-c2ccc(OCCN(C)c3ccccn3)cc2)nc2c1c(=O)n(Cc1ccccc1C#N)c(=O)n2C
inhibition (3T3-L1): inactive

C=CCn1c(-c2ccc(OCCN(C)c3ccccn3)cc2)nc2c1c(=O)n(Cc1ccccc1C#N)c(=O)n2C
inhibition (3T3-L1): inactive

CCn1c(=O)c2c(nc(-c3ccc(OCCN(C)c4ccccn4)cc3)n2CC)n(C)c1=O
inhibition (3T3-L1): inactive

CCCn1c(=O)c2c(nc(-c3ccc(OCCN(C)c4ccccn4)cc3)n2CC)n(C)c1=O
inhibition (3T3-L1): inactive

CCOC(=O)CCCn1c(-c2ccc(OCCN(C)c3ccccn3)cc2)nc2c1c(=O)n(Cc1ccccc1C#N)c(=O)n2C
inhibition (3T3-L1): inactive

CCOC(=O)CCCn1c(=O)c2c(nc(-c3ccc(OCCN(C)c4ccccn4)cc3)n2COC(=O)C(C)(C)C)n(C)c1=O
inhibition (3T3-L1): inactive

NC(=O)c1ncn([C@@H]2O[C@H](CO)[C@@H](O)[C@H]2O)c1N [ACADESINE]
inhibition at 10 µM (3T3-L1; 3T3-L1, 24 h): 51%

CC(C)Cn1c(-c2ccc(OCCN(C)c3ccccn3)cc2)nc2c1c(=O)n(Cc1ccccc1C#N)c(=O)n2C
inhibition (3T3-L1): inactive
